# Test results as given in PubChem BioAssay AID1259407 (Chemical Carcinogenesis Research Information System (CCRIS), 2018).
# Activity calls are given as the source filed them. The rule behind the calls is not given here.
# System: CCRIS mutagenicity, Ames/micronucleus/aberration tests
# Assay: CCRIS mutagenicity studies
compound,measurement,setting,value
O=C1CCCO1,mutagenic call,"End Point: IN VITRO CHROMOSOMAL ABERRATIONS, Test System: CHO CELLS, Metabolic Activation: NONE",inactive; negative
same,mutagenic call,"End Point: IN VITRO CHROMOSOMAL ABERRATIONS, Test System: CHO CELLS, Metabolic Activation: RAT, LIVER, S-9, AROCLOR 1254",active; positive
same,mutagenic call,"Test System: AMES SALMONELLA TYPHIMURIUM, Strain/Indicator: TA98, Metabolic Activation: HAMSTER, LIVER, S-9, AROCLOR 1254 (10%), Method: PREINCUBATION",inactive; negative
same,mutagenic call,"Test System: AMES SALMONELLA TYPHIMURIUM, Strain/Indicator: TA98, Metabolic Activation: NONE, Method: PREINCUBATION",inactive; negative
same,mutagenic call,"Test System: AMES SALMONELLA TYPHIMURIUM, Strain/Indicator: TA98, Metabolic Activation: RAT LIVER S-9, PHENOBARBITAL AND BETA-NAPHTHOFLAVONE, Method: PREINCUBATION",inactive; negative
same,mutagenic call,"Test System: AMES SALMONELLA TYPHIMURIUM, Strain/Indicator: TA98, Metabolic Activation: RAT, LIVER, S-9, AROCLOR 1254 (10%), Method: PREINCUBATION",inactive; negative
same,mutagenic call,"Test System: AMES SALMONELLA TYPHIMURIUM, Strain/Indicator: TA98, Metabolic Activation: RAT, LIVER, S-9, AROCLOR 1254, Method: PREINCUBATION",inactive; negative
same,mutagenic call,"Test System: AMES SALMONELLA TYPHIMURIUM, Strain/Indicator: TA100, Metabolic Activation: HAMSTER, LIVER, S-9, AROCLOR 1254 (10%), Method: PREINCUBATION",inactive; negative
same,mutagenic call,"Test System: AMES SALMONELLA TYPHIMURIUM, Strain/Indicator: TA100, Metabolic Activation: NONE, Method: PREINCUBATION",inactive; negative
same,mutagenic call,"Test System: AMES SALMONELLA TYPHIMURIUM, Strain/Indicator: TA100, Metabolic Activation: RAT LIVER S-9, PHENOBARBITAL AND BETA-NAPHTHOFLAVONE, Method: PREINCUBATION",inactive; negative
same,mutagenic call,"Test System: AMES SALMONELLA TYPHIMURIUM, Strain/Indicator: TA100, Metabolic Activation: RAT, LIVER, S-9, AROCLOR 1254 (10%), Method: PREINCUBATION",inactive; negative
same,mutagenic call,"Test System: AMES SALMONELLA TYPHIMURIUM, Strain/Indicator: TA100, Metabolic Activation: RAT, LIVER, S-9, AROCLOR 1254, Method: PREINCUBATION",inactive; negative
same,mutagenic call,"Test System: AMES SALMONELLA TYPHIMURIUM, Strain/Indicator: TA102, Metabolic Activation: NONE, Method: PREINCUBATION",inactive; negative
same,mutagenic call,"Test System: AMES SALMONELLA TYPHIMURIUM, Strain/Indicator: TA102, Metabolic Activation: RAT LIVER S-9, PHENOBARBITAL AND BETA-NAPHTHOFLAVONE, Method: PREINCUBATION",inactive; negative
same,mutagenic call,"Test System: AMES SALMONELLA TYPHIMURIUM, Strain/Indicator: TA102, Metabolic Activation: RAT, LIVER, S-9, AROCLOR 1254, Method: PREINCUBATION",inactive; negative
same,mutagenic call,"Test System: AMES SALMONELLA TYPHIMURIUM, Strain/Indicator: TA104, Metabolic Activation: NONE, Method: PREINCUBATION",inactive; negative
same,mutagenic call,"Test System: AMES SALMONELLA TYPHIMURIUM, Strain/Indicator: TA104, Metabolic Activation: RAT LIVER S-9, PHENOBARBITAL AND BETA-NAPHTHOFLAVONE, Method: PREINCUBATION",inactive; negative
same,mutagenic call,"Test System: AMES SALMONELLA TYPHIMURIUM, Strain/Indicator: TA1535, Metabolic Activation: HAMSTER, LIVER, S-9, AROCLOR 1254 (10%), Method: PREINCUBATION",inactive; negative
same,mutagenic call,"Test System: AMES SALMONELLA TYPHIMURIUM, Strain/Indicator: TA1535, Metabolic Activation: NONE, Method: PREINCUBATION",inactive; negative
same,mutagenic call,"Test System: AMES SALMONELLA TYPHIMURIUM, Strain/Indicator: TA1535, Metabolic Activation: RAT LIVER S-9, PHENOBARBITAL AND BETA-NAPHTHOFLAVONE, Method: PREINCUBATION",inactive; negative
same,mutagenic call,"Test System: AMES SALMONELLA TYPHIMURIUM, Strain/Indicator: TA1535, Metabolic Activation: RAT, LIVER, S-9, AROCLOR 1254 (10%), Method: PREINCUBATION",inactive; negative
same,mutagenic call,"Test System: AMES SALMONELLA TYPHIMURIUM, Strain/Indicator: TA1537, Metabolic Activation: HAMSTER, LIVER, S-9, AROCLOR 1254 (10%), Method: PREINCUBATION",inactive; negative
same,mutagenic call,"Test System: AMES SALMONELLA TYPHIMURIUM, Strain/Indicator: TA1537, Metabolic Activation: NONE, Method: PREINCUBATION",inactive; negative
same,mutagenic call,"Test System: AMES SALMONELLA TYPHIMURIUM, Strain/Indicator: TA1537, Metabolic Activation: RAT LIVER S-9, PHENOBARBITAL AND BETA-NAPHTHOFLAVONE, Method: PREINCUBATION",inactive; negative
same,mutagenic call,"Test System: AMES SALMONELLA TYPHIMURIUM, Strain/Indicator: TA1537, Metabolic Activation: RAT, LIVER, S-9, AROCLOR 1254 (10%), Method: PREINCUBATION",inactive; negative
same,mutagenic call,"Test System: E.COLI, Strain/Indicator: WP2UVRA, Metabolic Activation: NONE, Method: PREINCUBATION",inactive; negative
same,mutagenic call,"Test System: E.COLI, Strain/Indicator: WP2UVRA, Metabolic Activation: RAT LIVER S-9, PHENOBARBITAL AND BETA-NAPHTHOFLAVONE, Method: PREINCUBATION",inactive; negative
same,mutagenic call,"Test System: E.COLI, Strain/Indicator: WP2UVRA\PKM101, Metabolic Activation: NONE, Method: PREINCUBATION",inactive; negative
same,mutagenic call,"Test System: E.COLI, Strain/Indicator: WP2UVRA\PKM101, Metabolic Activation: RAT LIVER S-9, PHENOBARBITAL AND BETA-NAPHTHOFLAVONE, Method: PREINCUBATION",inactive; negative
